Data published in ChEMBL document CHEMBL5518232, “Discovery of New Tricyclic Oxime Sampangine Derivatives as Potent Antifungal Agents for the Treatment of Cryptococcosis and Candidiasis” (J Med Chem, 2024).
≈ marks a conversion by molar mass, not a printed value. Calls of active or inactive are those of the source. The calls are words filed in the database; no cut-off is given here.

Tested on: Candida albicans
Experiment: In vivo antifungal activity against Candida albicans 0304103 infected in […] ICR mouse model assessed as reduction in fungal burden in kidney at 5 mg/kg, ip measured for 5 days (reference value: 7.37 log10CFU/g)
Type: functional
Details: time 5 day

Compound | Activity
CO/N=C1/c2ccsc2C(=O)c2c(C)noc21 | 5.73 log10CFU/g

Tested on: Candida albicans
Experiment: Antifungal activity against Candida albicans 0304103 assessed as inhibition of fungal growth at 8 ug/ml incubated for 48 hrs in presence of fluconazole by time growth curve assay
Type: functional, organism-based
Details: dose 8.0 µg/ml

Compound | Activity
CO/N=C1/c2ccsc2C(=O)c2c(C)noc21 | Active

Tested on: Candida albicans
Experiment: Antifungal activity against Candida albicans 0304103 assessed as reversal of ERG11 expression by measuring fold change at 16 ug/ml incubated for 24 hrs in presence of fluconazole by RT-PCR analysis (reference value: 8.8)
Type: functional
Details: dose 16 µg/ml

Compound | fold change (FC)
CO/N=C1/c2ccsc2C(=O)c2c(C)noc21 | 0.8

Tested on: Candida albicans
Experiment: Antifungal activity against Candida albicans 0304103 assessed as inhibition of fungal growth at 32 ug/ml incubated for 72 hrs by time growth curve assay
Type: functional, organism-based
Details: dose 32.0 µg/ml

Compound | Activity
CO/N=C1/c2ccsc2C(=O)c2c(C)noc21 | Active

Tested on: Cryptococcus neoformans
Experiment: Antifungal activity against Cryptococcus neoformans H99 assessed as inhibition of fungal growth incubated for 72 hrs by time growth curve assay
Type: functional, organism-based
Details: dose 0.13-2 µg/ml

Compound | Activity
CO/N=C1/c2ccsc2C(=O)c2c(C)noc21 | Dose-Dependent Effect

Tested on: Candida albicans
Experiment: Antifungal activity against Candida albicans 0304103 assessed as downregulation of GCA2 expression at 8 ug/ml incubated for 24 hrs in presence of fluconazole by RT-PCR analysis
Type: functional, organism-based
Details: dose 8.0 µg/ml

Compound | Activity
CO/N=C1/c2ccsc2C(=O)c2c(C)noc21 | Active

Tested on: Candida albicans
Experiment: Synergistic antifungal activity against Candida albicans 0304103 assessed as fractional inhibitory concentration index by measuring ratio of MIC80 for compound and synergetic / MIC80 for compound alone + MIC80 for fluconazole synergetic / MIC80 for fluconazole alone
Type: functional
Details: not given

Compound | fractional inhibitory concentration index (FICI)
CO/N=C1/c2ccoc2C(=O)c2c(C)noc21 | 0.094
CCCc1noc2c1C(=O)c1sccc1/C2=N/OC | 0.25
CO/N=C1/c2ccsc2C(=O)c2c(C)noc21 | 0.078

Tested on: Pichia kudriavzevii
Experiment: Synergistic antifungal activity against Candida krusei 10153 assessed as inhibition of fungal growth incubated for 48 hrs in presence of fluconazole by checkerboard microdilution assay
Type: functional, organism-based
Details: not given

Compound | Activity
CO/N=C1/c2ccsc2C(=O)c2c(C)noc21 | inactive

Tested on: Cryptococcus neoformans
Experiment: Antifungal activity against Cryptococcus neoformans H99 assessed as reduction in fungal growth incubated for 72 hrs by liquid based microdilution method
Type: functional
Details: not given

MIC80 | Compound
2 µg/mL (≈ 8.61 µM) | CO/N=C1/c2ccoc2C(=O)c2c(C)noc21
4 µg/mL (≈ 14.5 µM) | CCCc1noc2c1C(=O)c1sccc1/C2=N/OC
0.016 µg/mL (≈ 0.0644 µM) | CO/N=C1/c2ccsc2C(=O)c2c(C)noc21

Tested on: Candida albicans
Experiment: Antifungal activity against Candida albicans 0304103 assessed as downregulation of RLM1 expression at 8 ug/ml incubated for 24 hrs in presence of fluconazole by RT-PCR analysis
Type: functional, organism-based
Details: dose 8.0 µg/ml

Compound | Activity
CO/N=C1/c2ccsc2C(=O)c2c(C)noc21 | Active

Tested on: Candida parapsilosis
Experiment: Synergistic antifungal activity against Candida parapsilosis 20090 assessed as inhibition of fungal growth incubated for 48 hrs in presence of fluconazole by checkerboard microdilution assay
Type: functional, organism-based
Details: not given

Compound | Activity
CO/N=C1/c2ccsc2C(=O)c2c(C)noc21 | inactive

Tested on: Candida albicans
Experiment: Inhibition of biofilm formation in Candida albicans 0304103 at 2 ug/ml incubated for 24 hrs in presence of fluconazole by microplate based analysis relative to control
Type: functional
Details: not given

Compound | inhibition at 2 µg/mL
CO/N=C1/c2ccsc2C(=O)c2c(C)noc21 | 50%

Tested on: Candida albicans
Experiment: Antifungal activity against Candida albicans 0304103 assessed as log reduction in fungal growth at 8 ug/ml incubated for 48 hrs by time growth curve assay (reference value: 7.38 log10CFU/ml)
Type: functional
Details: dose 8 µg/ml

Compound | Activity
CO/N=C1/c2ccsc2C(=O)c2c(C)noc21 | 6.13 log10CFU/ml

Tested on: Candida tropicalis
Experiment: Antifungal activity against Candida tropicalis 10186 assessed as reduction in fungal growth incubated for 48 hrs by liquid based microdilution method
Type: functional
Details: not given

MIC80 | Compound
> 64 µg/mL | CO/N=C1/c2ccoc2C(=O)c2c(C)noc21
> 64 µg/mL | CCCc1noc2c1C(=O)c1sccc1/C2=N/OC
16 µg/mL (≈ 64.4 µM) | CO/N=C1/c2ccsc2C(=O)c2c(C)noc21

Tested on: Cryptococcus neoformans
Experiment: In vivo antifungal activity against Cryptococcus neoformans H99 infected in cryptococcal meningitis ICR mouse model assessed as reduction in fungal burden in brain at 5 mg/kg, ip measured for 5 days (reference value: 8.18 log10CFU/g)
Type: functional
Details: time 5 day

Compound | Activity
CO/N=C1/c2ccsc2C(=O)c2c(C)noc21 | 7.96 log10CFU/g

Tested on: Cryptococcus neoformans
Experiment: Antifungal activity against Cryptococcus neoformans H99 assessed as inhibition of capsule growth at 0.063 to 2 ug/ml measured after 24 hrs by laser confocal microscopy based analysis
Type: functional, organism-based
Details: dose 0.063-2 µg/ml

Compound | Activity
CO/N=C1/c2ccsc2C(=O)c2c(C)noc21 | Active

Tested on: Candida albicans
Experiment: Antifungal activity against Candida albicans 0304103 assessed as downregulation of APH5 expression at 8 ug/ml incubated for 24 hrs in presence of fluconazole by RT-PCR analysis
Type: functional, organism-based
Details: dose 8.0 µg/ml

Compound | Activity
CO/N=C1/c2ccsc2C(=O)c2c(C)noc21 | Active

Tested on: Candida albicans
Experiment: Antifungal activity against Candida albicans 0304103 assessed as downregulation of ERG11 expression at 16 ug/ml incubated for 24 hrs in presence of fluconazole by RT-PCR analysis
Type: functional, organism-based
Details: dose 16.0 µg/ml

Compound | Activity
CO/N=C1/c2ccsc2C(=O)c2c(C)noc21 | Active

Tested on: Candida albicans
Experiment: Antifungal activity against Candida albicans 0304103 assessed as downregulation of GCA1 expression at 8 ug/ml incubated for 24 hrs in presence of fluconazole by RT-PCR analysis
Type: functional, organism-based
Details: dose 8.0 µg/ml

Compound | Activity
CO/N=C1/c2ccsc2C(=O)c2c(C)noc21 | Active

Tested on: Cryptococcus neoformans
Experiment: Antifungal activity against Cryptococcus neoformans H99 assessed as log reduction in fungal growth at 2 ug/ml incubated for 72 hrs by time growth curve assay (reference value: 7.65 log10CFU/ml)
Type: functional
Details: dose 2 µg/ml

Compound | Activity
CO/N=C1/c2ccsc2C(=O)c2c(C)noc21 | 6.22 log10CFU/ml

Tested on: Candida albicans
Experiment: Antifungal activity against Candida albicans 0304103 assessed as downregulation of TEC1 expression at 8 ug/ml incubated for 24 hrs in presence of fluconazole by RT-PCR analysis
Type: functional, organism-based
Details: dose 8.0 µg/ml

Compound | Activity
CO/N=C1/c2ccsc2C(=O)c2c(C)noc21 | Active

Tested on: Candida albicans
Experiment: Inhibition of biofilm formation in Candida albicans 0304103 at 2 ug/ml incubated for 24 hrs by microplate based analysis relative to control
Type: functional
Details: not given

Compound | inhibition at 2 µg/mL
CO/N=C1/c2ccsc2C(=O)c2c(C)noc21 | ~30%

Tested on: Candida albicans
Experiment: Antifungal activity against Candida albicans 0304103 assessed as inhibition of filamentation at 2 ug/ml incubated for 3 hrs by inverted cell microscope based analysis
Type: functional, organism-based
Details: dose 2.0 µg/ml

Compound | Activity
CO/N=C1/c2ccsc2C(=O)c2c(C)noc21 | Active

Tested on: Candida albicans
Experiment: Antifungal activity against Candida albicans 0304103 assessed as downregulation of CDR1 expression at 16 ug/ml incubated for 24 hrs in presence of fluconazole by RT-PCR analysis
Type: functional, organism-based
Details: dose 16.0 µg/ml

Compound | Activity
CO/N=C1/c2ccsc2C(=O)c2c(C)noc21 | Active

Tested on: Candida albicans
Experiment: In vivo antifungal activity against Candida albicans 0304103 infected in […] ICR mouse model assessed as reduction in fungal burden in kidney at 5 mg/kg, ip measured for 5 days in presence of fluconazole (reference value: 7.37 log10CFU/g)
Type: functional
Details: time 5 day

Compound | Activity
CO/N=C1/c2ccsc2C(=O)c2c(C)noc21 | 5.31 log10CFU/g

Tested on: Candida albicans
Experiment: Inhibition of biofilm formation in Candida albicans 0304103 at 0.125 ug/ml incubated for 24 hrs by microplate based analysis relative to control
Type: functional
Details: not given

Compound | inhibition at 0.125 µg/mL
CO/N=C1/c2ccsc2C(=O)c2c(C)noc21 | 40%

Tested on: Cryptococcus neoformans
Experiment: Antifungal activity against Cryptococcus neoformans ATCC 34877 assessed as reduction in fungal growth incubated for 72 hrs by liquid based microdilution method
Type: functional
Details: not given

MIC80 | Compound
1 µg/mL (≈ 4.31 µM) | CO/N=C1/c2ccoc2C(=O)c2c(C)noc21
2 µg/mL (≈ 7.24 µM) | CCCc1noc2c1C(=O)c1sccc1/C2=N/OC
0.13 µg/mL (≈ 0.524 µM) | CO/N=C1/c2ccsc2C(=O)c2c(C)noc21

Tested on: Cryptococcus neoformans
Experiment: Antifungal activity against Cryptococcus neoformans H99 assessed as inhibition of capsule growth 2 ug/ml measured after 24 hrs by laser confocal microscopy based analysis relative to control
Type: functional
Parameters: scale not given: the % may be the effect or the level left
Details: dose 2 µg/ml

Compound | Activity
CO/N=C1/c2ccsc2C(=O)c2c(C)noc21 | 100%

Tested on: Clavispora lusitaniae
Experiment: Synergistic antifungal activity against Candida lusitaniae 9150 assessed as inhibition of fungal growth incubated for 48 hrs in presence of fluconazole by checkerboard microdilution assay
Type: functional, organism-based
Details: not given

Compound | Activity
CO/N=C1/c2ccsc2C(=O)c2c(C)noc21 | inactive

Tested on: Nakaseomyces glabratus
Experiment: Antifungal activity against Candida glabrata 9073 assessed as reduction in fungal growth incubated for 48 hrs by liquid based microdilution method
Type: functional
Details: not given

MIC80 | Compound
> 64 µg/mL | CO/N=C1/c2ccoc2C(=O)c2c(C)noc21
> 64 µg/mL | CCCc1noc2c1C(=O)c1sccc1/C2=N/OC
> 64 µg/mL | CO/N=C1/c2ccsc2C(=O)c2c(C)noc21

Tested on: Candida albicans
Experiment: Antifungal activity against Candida albicans 0304103 assessed as reduction in fungal growth incubated for 48 hrs by liquid based microdilution method
Type: functional
Details: not given

MIC80 | Compound
> 64 µg/mL | CO/N=C1/c2ccoc2C(=O)c2c(C)noc21
> 64 µg/mL | CCCc1noc2c1C(=O)c1sccc1/C2=N/OC
32 µg/mL (≈ 129 µM) | CO/N=C1/c2ccsc2C(=O)c2c(C)noc21

Tested on: Candida tropicalis
Experiment: Synergistic antifungal activity against Candida tropicalis 10186 assessed as inhibition of fungal growth incubated for 48 hrs in presence of fluconazole by checkerboard microdilution assay
Type: functional, organism-based
Details: not given

Compound | Activity
CO/N=C1/c2ccsc2C(=O)c2c(C)noc21 | inactive

Tested on: not listed separately
Experiment: Antifungal activity against Cryptococcus gattii VGI ATCC 14116 assessed as reduction in fungal growth incubated for 72 hrs by liquid based microdilution method
Type: functional
Details: not given

MIC80 | Compound
8 µg/mL (≈ 34.5 µM) | CO/N=C1/c2ccoc2C(=O)c2c(C)noc21
16 µg/mL (≈ 57.9 µM) | CCCc1noc2c1C(=O)c1sccc1/C2=N/OC
4 µg/mL (≈ 16.1 µM) | CO/N=C1/c2ccsc2C(=O)c2c(C)noc21

Tested on: Candida albicans
Experiment: In vivo antifungal activity against Candida albicans SC5314 infected in […] ICR mouse model assessed as reduction in fungal burden in kidney at 10 mg/kg, ip measured for 5 days in presence of fluconazole
Type: functional
Details: time 5 day

Compound | Activity
CO/N=C1/c2ccsc2C(=O)c2c(C)noc21 | 5.02 log10CFU/g

Tested on: Candida albicans
Experiment: Synergistic antifungal activity against Candida albicans 0304103 assessed as inhibition of fungal growth incubated for 48 hrs in presence of fluconazole by checkerboard microdilution assay
Type: functional
Details: not given

MIC80 | Compound
4 µg/mL | CO/N=C1/c2ccoc2C(=O)c2c(C)noc21
8 µg/mL | CCCc1noc2c1C(=O)c1sccc1/C2=N/OC
2 µg/mL | CO/N=C1/c2ccsc2C(=O)c2c(C)noc21

Tested on: Candida albicans
Experiment: In vivo antifungal activity against Candida albicans SC5314 infected in […] ICR mouse model assessed as reduction in fungal burden in kidney at 10 mg/kg, ip measured for 5 days
Type: functional, organism-based
Details: time 5.0 day

Compound | Activity
CO/N=C1/c2ccsc2C(=O)c2c(C)noc21 | Active

Tested on: not listed separately
Experiment: Effective permeability of the compound across blood brain barrier incubated for 12 hrs by PAMPA assay
Type: ADME
Details: read-out: Peff

Papp at 12 h | Compound
8.34 ×10⁻⁶ cm/s | CO/N=C1/c2ccsc2C(=O)c2c(C)noc21

Tested on: Cryptococcus neoformans
Experiment: Inhibition of biofilm formation in Cryptococcus neoformans H99 at 0.063 ug/ml incubated for 24 hrs by microplate based analysis relative to control
Type: functional
Details: not given

Compound | inhibition at 0.063 µg/mL
CO/N=C1/c2ccsc2C(=O)c2c(C)noc21 | > 90%

Tested on: Candida albicans
Experiment: Antifungal activity against Candida albicans SC5314 assessed as reduction in fungal growth incubated for 48 hrs by liquid based microdilution method
Type: functional
Details: not given

MIC80 | Compound
> 64 µg/mL | CO/N=C1/c2ccoc2C(=O)c2c(C)noc21
> 64 µg/mL | CCCc1noc2c1C(=O)c1sccc1/C2=N/OC
> 64 µg/mL | CO/N=C1/c2ccsc2C(=O)c2c(C)noc21

Tested on: [Candida] auris
Experiment: Synergistic antifungal activity against Candida auris 0029 assessed as inhibition of fungal growth incubated for 48 hrs in presence of fluconazole by checkerboard microdilution assay
Type: functional, organism-based
Details: Candidozyma auris

Compound | Activity
CO/N=C1/c2ccsc2C(=O)c2c(C)noc21 | inactive
